Results on five compounds are retold here after US6743575B2, “Compositions and methods for the preservation of living tissues” (Biostore New Zealand Ltd., priority 1996, dated 2004).

For this assay, the system named is mouse embryos. Put plainly: Storage of mouse embryos at 4° C., survival assessed by hatching in subsequent culture. The format is cell-based. The conditions noted are these: for ranking of Class I and Class II solutes for hatching of stored embryos: storage 1-3 days at 4° C., Class I:Class II 1.6:1, 1.75 mM CaSO4. The method, then:
The efficacy of the solutions of the present invention in the preservation of mouse embryos was tested as described below. As embryos consist of rapidly dividing cells, they are difficult to arrest, and therefore provide a sensitive test of storage solutions. Embryos also have the advantage that survival in storage can be assessed after 1-5 days by their ability to hatch in subsequent culture.
Viable mouse embryos were stored for periods of 1, 2 or 3 days at 4° C. in either PBS or an aqueous solution of either raffinose, trehalose, sucrose or lactose (Class I solutes), together with a solute selected from the group consisting of trimethyl amine oxide (TMAO), betaine, taurine, sarcosine, glucose, mannose, fructose, ribose, galactose, sorbitol, mannitol, inositol and taurine (Class II solutes), at a ratio of Class I solute to Class II solute of 1.6:1. Each Class I/Class II solution also contained calcium sulfate at a concentration of 1.75 mM. The solutions also contained 0.1-1% bovine serum albumin (BSA) and 25 mg/L of kanamycin sulfate. All reagents were obtained from Sigma Chemical Company (St. Louis, Mo.). Survival of the embryos was assessed by subsequent culture in Dulbecco's Modified Eagles Medium (DMEM, Life Technologies, Grand Island, N.Y.) and was expressed both as the number of live embryos present after storage and the number of embryos which hatched after 48 hours in culture at 37° C.
Mouse embryos were incubated with either sodium butyrate or a Class II solute at either, room temperature, 30° C. or 4° C. prior to storage in Solution 70/30 for up to five days at 4° C. […] Sodium butyrate replaced sodium chloride at the same concentration in PBS. FIGS. 8A, B and C show the percentage of mouse embryos hatching after 1, 2 and 3 days, respectively, in storage following pretreatment with sodium butyrate at concentrations of 5, 10 or 15 mM for either 10, 20 or 30 minutes. FIGS. 8D, E and F show the percentage of mouse embryos alive after 1, 2 and 3 days, respectively, in storage following pretreatment with sodium butyrate at concentrations of 5, 10 or 15 mM for either 10, 20 or 30 minutes. Pretreatment with sodium butyrate allowed up to 80% of embryos to hatch following three days of storage in Solution 70/30. After 5 days of storage in Solution 70/30 following pretreatment with higher concentrations of sodium butyrate, up to 70% of embryos hatched compared to 2% with no pretreatment (see FIG. 9). Embryos stored in PBS without pretreatment lasted no longer than 3 days. […] FIGS. 10A, B, C and D show the survival of mouse embryos after up to four days of storage in Solution 70/30 at 4° C. following pretreatment with 25 mM sodium butyrate for 5, 10 or 15 minutes at room temperature.

Turning to `C[N+](C)(C)[O-]` [TMAO, trimethyl amine oxide], the “ranking of Class I and Class II solutes for hatching of stored embryos” value (shortened to “ranking of Class I and Class II solutes”) is “best Class II solute”.

Turning to `CCCC(=O)[O-].[Na+]` [sodium butyrate], the embryos hatched entry (5 days of storage in Solution 70/30 after pretreatment with higher concentrations of sodium butyrate) is listed as “up to 70%”. In addition, the embryos hatching entry (three days of storage in Solution 70/30 at 4° C. after pretreatment with sodium butyrate) is “up to 80%”.

On to `OC[C@H]1O[C@H](OC[C@H]2O[C@H](O[C@]3(CO)O[C@H](CO)[C@@H](O)[C@@H]3O)[C@H](O)[C@@H](O)[C@@H]2O)[C@H](O)[C@@H](O)[C@H]1O` [Raffinose, raffinose], for which the “ranking of Class I and Class II solutes” value is listed as “best Class I solute”.

Turning to `C[N+](C)(C)CC(=O)O` [betaine], the “ranking of Class I and Class II solutes” value is “second best”.

With `OC[C@H]1O[C@H](O[C@H]2O[C@H](CO)[C@@H](O)[C@H](O)[C@H]2O)[C@H](O)[C@@H](O)[C@@H]1O` [trehalose], the “ranking of Class I and Class II solutes” value is recorded as “second best”.
